± gives the expanded uncertainty stated by the source.
Assay: isobaric coefficient of expansion
Settings: Liquid, Micro DSCII

CCCCn1cc[n+](C)c1.COS(=O)(=O)[O-] [1-butyl-3-methylimidazolium methyl sulfate]
isobaric coefficient of expansion
Settings	5000 kPa	10000 kPa	15000 kPa	20000 kPa	25000 kPa	30000 kPa	35000 kPa	40000 kPa	45000 kPa	50000 kPa
278.15 K	0.000563 ± 1.4e-05 1/K	0.000556 ± 1.4e-05 1/K	0.00055 ± 1.3e-05 1/K	0.000545 ± 1.3e-05 1/K	0.00054 ± 1.3e-05 1/K	0.000535 ± 1.3e-05 1/K	0.000531 ± 1.3e-05 1/K	0.000527 ± 1.3e-05 1/K	0.000521 ± 1.3e-05 1/K	0.000516 ± 1.3e-05 1/K
288.15 K	0.000557 ± 1.4e-05 1/K	0.00055 ± 1.3e-05 1/K	0.000543 ± 1.3e-05 1/K	0.000539 ± 1.3e-05 1/K	0.000537 ± 1.3e-05 1/K	0.00053 ± 1.3e-05 1/K	0.000527 ± 1.3e-05 1/K	0.00052 ± 1.3e-05 1/K	0.000514 ± 1.3e-05 1/K	0.000513 ± 1.3e-05 1/K
298.15 K	0.000549 ± 1.3e-05 1/K	0.000547 ± 1.3e-05 1/K	0.000539 ± 1.3e-05 1/K	0.000533 ± 1.3e-05 1/K	0.000529 ± 1.3e-05 1/K	0.000524 ± 1.3e-05 1/K	0.000518 ± 1.3e-05 1/K	0.000513 ± 1.3e-05 1/K	0.00051 ± 1.2e-05 1/K	0.000507 ± 1.2e-05 1/K
308.15 K	0.000544 ± 1.3e-05 1/K	0.000538 ± 1.3e-05 1/K	0.000533 ± 1.3e-05 1/K	0.000527 ± 1.3e-05 1/K	0.000522 ± 1.3e-05 1/K	0.000517 ± 1.3e-05 1/K	0.000512 ± 1.3e-05 1/K	0.000509 ± 1.2e-05 1/K	0.000504 ± 1.2e-05 1/K	0.0005 ± 1.2e-05 1/K
318.15 K	0.000538 ± 1.3e-05 1/K	0.000534 ± 1.3e-05 1/K	0.00053 ± 1.3e-05 1/K	0.000522 ± 1.3e-05 1/K	0.000517 ± 1.3e-05 1/K	0.000513 ± 1.3e-05 1/K	0.000508 ± 1.2e-05 1/K	0.000504 ± 1.2e-05 1/K	0.000499 ± 1.2e-05 1/K	0.000494 ± 1.2e-05 1/K
328.15 K	0.000533 ± 1.3e-05 1/K	0.000529 ± 1.3e-05 1/K	0.000524 ± 1.3e-05 1/K	0.000519 ± 1.3e-05 1/K	0.000512 ± 1.3e-05 1/K	0.000508 ± 1.2e-05 1/K	0.000503 ± 1.2e-05 1/K	0.000498 ± 1.2e-05 1/K	0.000493 ± 1.2e-05 1/K	0.000489 ± 1.2e-05 1/K
338.15 K	0.00053 ± 1.3e-05 1/K	0.000525 ± 1.3e-05 1/K	0.000521 ± 1.3e-05 1/K	0.000514 ± 1.3e-05 1/K	0.000508 ± 1.2e-05 1/K	0.000506 ± 1.2e-05 1/K	0.000499 ± 1.2e-05 1/K	0.000496 ± 1.2e-05 1/K	0.000491 ± 1.2e-05 1/K	0.000489 ± 1.2e-05 1/K
348.15 K	0.000527 ± 1.3e-05 1/K	0.000524 ± 1.3e-05 1/K	0.000517 ± 1.3e-05 1/K	0.000512 ± 1.3e-05 1/K	0.000506 ± 1.2e-05 1/K	0.000502 ± 1.2e-05 1/K	0.000499 ± 1.2e-05 1/K	0.000494 ± 1.2e-05 1/K	0.00049 ± 1.2e-05 1/K	0.000486 ± 1.2e-05 1/K

CCCCn1cc[n+](C)c1.[F][Sb-]([F])([F])([F])([F])[F] [1-butyl-3-methylimidazolium hexafluoroantimonate]
isobaric coefficient of expansion
Settings	5000 kPa	10000 kPa	15000 kPa	20000 kPa	25000 kPa	30000 kPa	35000 kPa	40000 kPa	45000 kPa	50000 kPa
278.15 K	0.000636 ± 1.6e-05 1/K	0.000627 ± 1.5e-05 1/K	0.000619 ± 1.5e-05 1/K	0.000614 ± 1.5e-05 1/K	0.000607 ± 1.5e-05 1/K	0.0006 ± 1.5e-05 1/K	0.000593 ± 1.5e-05 1/K	0.000589 ± 1.4e-05 1/K	0.000582 ± 1.4e-05 1/K	0.000575 ± 1.4e-05 1/K
288.15 K	0.00063 ± 1.5e-05 1/K	0.000621 ± 1.5e-05 1/K	0.000614 ± 1.5e-05 1/K	0.000609 ± 1.5e-05 1/K	0.000603 ± 1.5e-05 1/K	0.000596 ± 1.5e-05 1/K	0.000589 ± 1.4e-05 1/K	0.000582 ± 1.4e-05 1/K	0.000575 ± 1.4e-05 1/K	0.000573 ± 1.4e-05 1/K
298.15 K	0.000624 ± 1.5e-05 1/K	0.000619 ± 1.5e-05 1/K	0.000609 ± 1.5e-05 1/K	0.000602 ± 1.5e-05 1/K	0.000597 ± 1.5e-05 1/K	0.000588 ± 1.4e-05 1/K	0.000581 ± 1.4e-05 1/K	0.000576 ± 1.4e-05 1/K	0.000571 ± 1.4e-05 1/K	0.000566 ± 1.4e-05 1/K
308.15 K	0.00062 ± 1.5e-05 1/K	0.00061 ± 1.5e-05 1/K	0.000604 ± 1.5e-05 1/K	0.000596 ± 1.5e-05 1/K	0.000589 ± 1.4e-05 1/K	0.000583 ± 1.4e-05 1/K	0.000576 ± 1.4e-05 1/K	0.000571 ± 1.4e-05 1/K	0.000563 ± 1.4e-05 1/K	0.000558 ± 1.4e-05 1/K
318.15 K	0.000612 ± 1.5e-05 1/K	0.000609 ± 1.5e-05 1/K	0.000599 ± 1.5e-05 1/K	0.000591 ± 1.4e-05 1/K	0.000584 ± 1.4e-05 1/K	0.000577 ± 1.4e-05 1/K	0.00057 ± 1.4e-05 1/K	0.000564 ± 1.4e-05 1/K	0.000557 ± 1.4e-05 1/K	0.00055 ± 1.3e-05 1/K
328.15 K	0.000609 ± 1.5e-05 1/K	0.000601 ± 1.5e-05 1/K	0.000595 ± 1.5e-05 1/K	0.000589 ± 1.4e-05 1/K	0.00058 ± 1.4e-05 1/K	0.000573 ± 1.4e-05 1/K	0.000566 ± 1.4e-05 1/K	0.000559 ± 1.4e-05 1/K	0.000553 ± 1.4e-05 1/K	0.000547 ± 1.3e-05 1/K
338.15 K	0.000607 ± 1.5e-05 1/K	0.000599 ± 1.5e-05 1/K	0.000593 ± 1.5e-05 1/K	0.000585 ± 1.4e-05 1/K	0.000575 ± 1.4e-05 1/K	0.000569 ± 1.4e-05 1/K	0.000563 ± 1.4e-05 1/K	0.000556 ± 1.4e-05 1/K	0.000549 ± 1.3e-05 1/K	0.000545 ± 1.3e-05 1/K
348.15 K	0.000602 ± 1.5e-05 1/K	0.000597 ± 1.5e-05 1/K	0.000588 ± 1.4e-05 1/K	0.000579 ± 1.4e-05 1/K	0.000574 ± 1.4e-05 1/K	0.000567 ± 1.4e-05 1/K	0.000562 ± 1.4e-05 1/K	0.000555 ± 1.4e-05 1/K	0.000549 ± 1.3e-05 1/K	0.000542 ± 1.3e-05 1/K

From the NIST ThermoML archive (doi:10.1021/je900407u)
